In patent US9113629B2, “4-amino-6-(4-substituted-phenyl)-picolinates and 6-amino-2-(4-substituted-phenyl)-pyrimidine-4-carboxylates and their use as herbicides” (DOW AGROSCIENCES LLC, priority 2013, dated 2015):

Experiments:
[1] = system: Key Grass and Sedge Weeds as well as Grass Crops; assay: Post-emergent Test II herbicidal activity (Table 6); format: in vivo; settings: for Visual Growth Reduction (%) 14 Days After Application, CYPES: CYPES: yellow nutsedge (Cyperus esculentus); for Visual Growth Reduction (%) 14 Days After Application, DIGSA: DIGSA: crabgrass (Digitaria sanguinalis); for Visual Growth Reduction (%) 14 Days After Application, ECHCG: ECHCG: barnyardgrass (Echinochloa crus-galli); for Visual Growth Reduction (%) 14 Days After Application, ORYSA: ORYSA: rice (Oryza sativa); for Visual Growth Reduction (%) 14 Days After Application, SORVU: SORVU: sorghum (Sorghum vulgare); for Visual Growth Reduction (%) 14 Days After Application, TRZSS: TRZSS (wheat); for Visual Growth Reduction (%) 14 Days After Application, ZEAMX: ZEAMX: maize, corn (Zea mays)
Outline: (§1)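 Scoring: visual, 0–100% injury at 14 d versus untreated. Treatment: overhead track spray, 187 L/ha, onto plants at the first–second true leaf stage. Growth: greenhouse, ~15 h light, 23–29 °C day, 22–28 °C night.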

[2] = system: Key Broadleaf Weed and Crop Species; assay: Post-emergent Test II herbicidal activity (Table 5); format: in vivo; settings: post-emergent; for Visual Growth Reduction (%) 14 Days After Application, ABUTH: ABUTH: velvetleaf (Abutilon theophrasti); for Visual Growth Reduction (%) 14 Days After Application, AMARE: AMARE: redroot pigweed (Amaranthus retroflexus); for Visual Growth Reduction (%) 14 Days After Application, BRSNN: BRSNN: oilseed-rape, canola (Brassica napus); for Visual Growth Reduction (%) 14 Days After Application, CHEAL: CHEAL: lambsquarters (Chenopodium album); for Visual Growth Reduction (%) 14 Days After Application, EPHHL: EPHHL: wild poinsettia (Euphorbia heterophylla); for Visual Growth Reduction (%) 14 Days After Application, HELAN: HELAN: sunflower (Helianthus annuus); for Visual Growth Reduction (%) 14 Days After Application, VIOTR: VIOTR: wild pansy (Viola tricolor)
Outline: as §1

## COC(=O)c1nc(-c2ccc(C(F)(F)F)c(F)c2)c(Cl)c(N)c1Cl [Compound 58]
[1]; application rate 70 g ai/ha
  Visual Growth Reduction (%) 14 Days After Application, CYPES: A (95-100)
  Visual Growth Reduction (%) 14 Days After Application, DIGSA: D (60-74)
  Visual Growth Reduction (%) 14 Days After Application, ECHCG: G (0-29)
  Visual Growth Reduction (%) 14 Days After Application, ORYSA: G (0-29)
  Visual Growth Reduction (%) 14 Days After Application, SORVU: E (45-59)
  Visual Growth Reduction (%) 14 Days After Application, TRZSS: E (45-59)
  Visual Growth Reduction (%) 14 Days After Application, ZEAMX: D (60-74)
[1]; application rate 140 g ai/ha
  Visual Growth Reduction (%) 14 Days After Application, CYPES: A (95-100)
  Visual Growth Reduction (%) 14 Days After Application, DIGSA: C (75-84)
  Visual Growth Reduction (%) 14 Days After Application, ECHCG: C (75-84)
  Visual Growth Reduction (%) 14 Days After Application, ORYSA: G (0-29)
  Visual Growth Reduction (%) 14 Days After Application, SORVU: E (45-59)
  Visual Growth Reduction (%) 14 Days After Application, TRZSS: D (60-74)
  Visual Growth Reduction (%) 14 Days After Application, ZEAMX: D (60-74)
[2]; 70 g ai/ha
  Visual Growth Reduction (%) 14 Days After Application, ABUTH: B (85-94)
  Visual Growth Reduction (%) 14 Days After Application, AMARE: B (85-94)
  Visual Growth Reduction (%) 14 Days After Application, BRSNN: D (60-74)
  Visual Growth Reduction (%) 14 Days After Application, CHEAL: A (95-100)
  Visual Growth Reduction (%) 14 Days After Application, EPHHL: G (0-29)
  Visual Growth Reduction (%) 14 Days After Application, HELAN: A (95-100)
  Visual Growth Reduction (%) 14 Days After Application, VIOTR: G (0-29)
[2]; 140 g ai/ha
  Visual Growth Reduction (%) 14 Days After Application, ABUTH: A (95-100)
  Visual Growth Reduction (%) 14 Days After Application, AMARE: A (95-100)
  Visual Growth Reduction (%) 14 Days After Application, BRSNN: C (75-84)
  Visual Growth Reduction (%) 14 Days After Application, CHEAL: A (95-100)
  Visual Growth Reduction (%) 14 Days After Application, EPHHL: G (0-29)
  Visual Growth Reduction (%) 14 Days After Application, HELAN: A (95-100)
  Visual Growth Reduction (%) 14 Days After Application, VIOTR: G (0-29)
